Results published in US10413583B2, “Synthetic substrates for enzymes that catalyze reactions of modified cysteines and related methods” (The University of Chicago, priority 2016, dated 2019).

System: A431 cells
Experiment: DPP-3 in A431 cells, starvation and EGF stimulation (flow cytometry, microscopy)
Format: cell-based, human
Details: serum starved A431; 1 ng/mL EGF for 15 min; 5 μM DPP-3
Description: Cells were plated on a 10 cm dish with 10 mL of DMEM/High Glucose (10% FBS, 1% P/S, L-Glutamine, Sodium pyruvate) 36-48 hours prior to the day of experiment and maintained at 37° C., 5% CO2 so as to obtain 80-90% confluency. Cells were washed with DPBS and trypsinized with 1 mL 0.05% Trypsin. 5 mL of DMEM/High Glucose (10% FBS, L-Glutamine, Sodium pyruvate) was added and cells were spun down at 1200 rpm for 3 min. Media was discarded and cells were resuspended in 5 mL of Live Cell Imaging Solution and again spun down at 1200 rpm for 3 min. The cells pellets obtained were resuspended in 3-5 mL of Live Cell Imaging Solution and divided into 500 μL aliquots. The aliquots were treated with either 0.2% DMSO carrier or 1 μM of PalmB/ML348 or 1 μM/5 μM of ML349 inhibitor. After 30 min of incubation at room temperature, 1 μL of 2.5 mM DPP-3 in DMSO was added to each aliquot for a final concentration of 5 μM, and the solutions were mixed. After 5 min incubation at room temperature, fluorescence signal in FITC channel was measured for 10000 cells (5000 for HeLa experiments) on a LSR-Fortessa 4-15 HTS (BD digital instrument, 488 nm laser with 530/30 nm filter for FITC; BD, Franklin Lakes, N.J., United States of America). For analyzing DPP2 in HEK293T cells, the aliquots were treated with either 0.2% DMSO carrier or 2 μM of PalmB, 5 or 20 μM of ML348/ML349 and then analyzed by the protocol as mentioned above. Data was analyzed by FlowJo software version 10.0.8. For comparison of A431 starved versus non-starved, parallel 10 cm dishes of A431 cells were plated in 10 mL of DMEM (high glucose, 10% FBS, 1% P/S), and grown for 36 h. The growth media was removed, and replaced by 10 mL of either DMEM (High glucose) with 10% FBS to maintain “growth” conditions, or DMEM (High glucose) without FBS respectively for “starvation” conditions, and incubated for 14 h. After trypsinization, both plates were treated with 5 mL of DMEM (high glucose) for spinning the cells down, and further processing and analysis were performed as described above by flow cytometry.
Parallel 35 mm glass bottom dishes (D35-10-1.5-N; Cellvis, Mountain View, Calif., United States of America) of A431 cells (450,000) were plated in 2 mL of DMEM glutamax (high glucose, 10% FBS, 1% P/S), and grown for 36 h. The growth media was removed, and replaced by 1.5 mL of either DMEM (High glucose) with 10% FBS to maintain “growth” conditions, or DMEM (High glucose) without FBS respectively for “starvation” conditions, and incubated for 24 h. […] For data analysis, the average fluorescence intensity per image in each experimental condition was obtained by selecting ROIs in the brightfield image. For display, the data were normalized to the average fluorescence intensity of the control conditions. […]

EGF: epidermal growth factor, obtained from Gold Biotechnology (NSDSECPLSHDGYCLHDGVCMYIEALDKYACNCVVGYIGERCQYRDLKWWELR; UniProt P01133 971-1023, looked up)
effect on depalmitoylation activity measured by DPP-3: inhibition of depalmitoylation activity
